Measurements from PubChem BioAssay (NCI).
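Assay format: 96-well plates, 48-hour exposure. The concentration for 50% growth inhibition is given as GI50. The concentration for full growth arrest is given as TGI.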

Assays:
Experiment in all cases: NCI anticancer screen, dose series, 48 h
A498 renal = system: A498 renal
CAKI-1 renal = system: CAKI-1 renal
COLO 205 colon = system: COLO 205 colon
HCT-116 colon = system: HCT-116 colon
HOP-62 NSCLC = system: HOP-62 NSCLC
IGROV1 ovarian = system: IGROV1 ovarian
MCF7 breast = system: MCF7 breast
NCI-H522 lung = system: NCI-H522 lung
PC-3 prostate = system: PC-3 prostate
UACC-257 melanoma = system: UACC-257 melanoma

| SMILES | GI50 (A498 renal) | TGI (A498 renal) | GI50 (CAKI-1 renal) | TGI (CAKI-1 renal) | GI50 (COLO 205 colon) | TGI (COLO 205 colon) | GI50 (HCT-116 colon) | TGI (HCT-116 colon) | GI50 (HOP-62 NSCLC) | TGI (HOP-62 NSCLC) | GI50 (IGROV1 ovarian) | TGI (IGROV1 ovarian) | GI50 (MCF7 breast) | TGI (MCF7 breast) | GI50 (NCI-H522 lung) | TGI (NCI-H522 lung) | GI50 (PC-3 prostate) | TGI (PC-3 prostate) | GI50 (UACC-257 melanoma) | TGI (UACC-257 melanoma) |
| --- | --- | --- | --- | --- | --- | --- | --- | --- | --- | --- | --- | --- | --- | --- | --- | --- | --- | --- | --- | --- |
| CCSc1nc(SCC)c2cn[nH]c2n1 | 2.47 µM | 13.1 µM | 22.9 µM | 74.6 µM | 34.4 µM | > 100 µM | 36.6 µM | > 100 µM | 18.6 µM | > 100 µM | 49 µM | > 100 µM | 26.5 µM | > 100 µM | 35.7 µM | > 100 µM | 39 µM | > 100 µM | 89 µM | > 100 µM |
| CCn1c(-c2ccc(OC(C)=O)cc2)c(C)c2cc(OC(C)=O)ccc21 |  | 70.4 µM |  | > 100 µM |  | 47.4 µM |  | 22.1 µM |  | 47.7 µM |  | > 100 µM |  | 40.4 µM |  | 40 µM |  | 44.1 µM |  | 94.9 µM |
| O=c1cc(NC2CCN(CCCc3ccccc3)CC2)c2cc(Cl)ccc2o1 | 0.0423 µM | 6.92 µM | 12.4 µM | 25.6 µM | 9.98 µM | 23.2 µM | 4.02 µM | 16.5 µM | 17.3 µM | 33.3 µM | 11.3 µM | 26.6 µM | 9.42 µM | 26.9 µM | 8.35 µM | 23.5 µM | 12.9 µM | 26.9 µM | 15.4 µM | 30 µM |
| O=c1c2ccccc2c(=O)c2c1[nH]c1c(-c3ccccc3)c(-c3ccccc3)c(=O)c12 | 3.12 µM | 7.69 µM | 1.93 µM | 4.99 µM | 3.94 µM | 13.1 µM | 2.31 µM | 4.87 µM | 3.28 µM | 9.15 µM | 3.39 µM | 20.4 µM | 2.48 µM | > 100 µM | 2.19 µM | 5.73 µM | 2.67 µM | 11.1 µM | 2.46 µM | 8.22 µM |
| O=S(=O)(Nc1cc(Sc2cccc3cccnc23)c(O)c2ccccc12)c1ccccc1 | 4.01 µM | 30.6 µM | 1.97 µM | 10.1 µM | 1.71 µM | 3.7 µM | 0.555 µM | 2.8 µM | 1.01 µM | 25.4 µM | 1.01 µM | 6 µM | 0.52 µM | 2.85 µM | 2.12 µM | 8.17 µM | 0.467 µM | 13.1 µM | 1.87 µM | 5.01 µM |
| C/C(N=NC(=S)N(C)C)=C1\C=CC=CN1O |  | > 100 µM |  | > 100 µM |  | > 100 µM |  | > 100 µM |  | > 47.3 µM |  | > 100 µM |  | > 100 µM |  | > 56.2 µM |  | > 100 µM |  | > 100 µM |
| O=C(/C=C\c1ccc(NCc2ccc(C(=O)O)cc2)cc1)CCl | 15 µM | 28.3 µM | 16.6 µM | 32.8 µM | 14.2 µM | 29.4 µM | 2.5 µM | 10.3 µM | 15.5 µM | 29.6 µM | 16.7 µM | 37.2 µM | 4.26 µM | 17.7 µM | 1.65 µM | 3.24 µM | 14.2 µM | 28.9 µM | 11.4 µM | 23.8 µM |
| ClCc1cccc(Cn2cnc3nc(Cl)nc(Cl)c32)c1 | 1.52 µM | 2.9 µM | 1.89 µM | 3.4 µM | 1.69 µM | 4.22 µM | 0.285 µM | 0.731 µM | 1.99 µM | 3.44 µM | 4.45 µM | 8.92 µM | 0.505 µM | 1.38 µM | 1.84 µM | 3.79 µM | 0.644 µM | 2.06 µM | 2.48 µM | 7.35 µM |
| COc1cc(C(=O)c2cc(C)c3[nH]c4ccc(C)cc4c3c2C)cc(OC)c1OC | < 0.01 µM | < 0.01 µM | < 0.01 µM | > 40.5 µM | < 0.01 µM | 0.0369 µM | < 0.01 µM |  | < 0.01 µM | > 100 µM | < 0.01 µM |  | < 0.01 µM | > 100 µM | < 0.01 µM |  | < 0.01 µM | > 100 µM | 4.5 µM | > 100 µM |
| Br[C](Br)(Br)[Hg][c]1ccccc1 | 16.2 µM | 30 µM | 15.2 µM | 29.8 µM | 4.55 µM | 16.2 µM | 19.7 µM | 47.9 µM | 13.4 µM | 18.7 µM | 13.8 µM | 27.6 µM | 4.85 µM | 19.4 µM | 1.44 µM | 3.05 µM | 14.7 µM | 28 µM | 13.5 µM | 26.7 µM |
| O=C1CC2c3ccccc3CCC2c2ccccc21 (stereo not given) |  | 41.1 µM |  | > 100 µM |  | 11.2 µM |  | 42.1 µM |  | > 100 µM |  | 86.6 µM |  | > 100 µM |  | 46.7 µM |  | 90.6 µM |  | 73.2 µM |
| C[C@]12CC[C@@H]3c4cc(OCC(F)(F)F)c(O)cc4/C(=N/O)C[C@H]3[C@@H]1CC[C@@H]2O |  | 21.5 µM |  | > 66.6 µM |  | 35.3 µM | 0.0421 µM | 15.2 µM | 0.029 µM | 0.419 µM |  | 20 µM |  | 33.9 µM | 0.0507 µM | 25.6 µM |  | 12 µM |  | 45.5 µM |
